Test results reported in paper PMC2641037 (Pharmacogenetics and genomics, 2009).
Structures can show the parent of a compound that is named as a salt. Where two headings read alike, the source gives them in different places.

Tests used:
Caco-2 cells = conditions: for effect on permeability of montelukast / Papp±SD of montelukast (% of control): 125 µM competitor; for effect on permeability of montelukast: Caco-2, p<0.05; for Papp±SD of montelukast (% of control) / montelukast permeability, % of control: Caco-2; for Papp±SD of montelukast (% of control): control without additional drug
OATP2B1 [1] = conditions: up; substrate dependent; cited from earlier work
OATP2B1 [2] = target: T1, OATP2B1 (Homo sapiens, UniProt O94956); experiment: Permeability in OATP2B1 expressing MDCKII cell line; conditions: basolateral → apical, pH 7.5, 1 h 37°C
T1 sequence (O94956 1-709): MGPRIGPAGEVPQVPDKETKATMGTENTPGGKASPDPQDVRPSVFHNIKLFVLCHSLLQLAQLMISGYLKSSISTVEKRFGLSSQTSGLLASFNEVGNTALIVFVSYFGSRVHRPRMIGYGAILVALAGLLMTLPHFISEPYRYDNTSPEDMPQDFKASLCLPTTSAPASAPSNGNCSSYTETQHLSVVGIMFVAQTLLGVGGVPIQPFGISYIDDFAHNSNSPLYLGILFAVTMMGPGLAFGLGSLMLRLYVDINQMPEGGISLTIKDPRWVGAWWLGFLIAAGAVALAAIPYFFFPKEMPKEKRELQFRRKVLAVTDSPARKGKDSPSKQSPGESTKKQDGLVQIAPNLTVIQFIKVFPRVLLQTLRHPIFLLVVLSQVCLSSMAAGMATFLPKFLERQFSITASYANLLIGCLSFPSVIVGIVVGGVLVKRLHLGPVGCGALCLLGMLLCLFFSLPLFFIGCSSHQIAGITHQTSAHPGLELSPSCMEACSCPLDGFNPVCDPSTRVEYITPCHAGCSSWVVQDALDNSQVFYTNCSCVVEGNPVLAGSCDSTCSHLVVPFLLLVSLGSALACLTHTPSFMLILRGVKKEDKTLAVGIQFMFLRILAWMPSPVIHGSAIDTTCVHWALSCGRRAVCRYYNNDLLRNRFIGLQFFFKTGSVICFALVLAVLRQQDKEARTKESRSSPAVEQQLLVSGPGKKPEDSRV

MDR1 = MDR1 (Homo sapiens, UniProt P08183); experiment: ATP consumption by membrane preparations containing MDR1; format: biochemical; conditions: data not shown
[3] = weak acid; cited from earlier work
[4] = cited from earlier work
[5] = can approach; cited from earlier work

Sequence of MDR1 (P08183 whole entry, species assumed): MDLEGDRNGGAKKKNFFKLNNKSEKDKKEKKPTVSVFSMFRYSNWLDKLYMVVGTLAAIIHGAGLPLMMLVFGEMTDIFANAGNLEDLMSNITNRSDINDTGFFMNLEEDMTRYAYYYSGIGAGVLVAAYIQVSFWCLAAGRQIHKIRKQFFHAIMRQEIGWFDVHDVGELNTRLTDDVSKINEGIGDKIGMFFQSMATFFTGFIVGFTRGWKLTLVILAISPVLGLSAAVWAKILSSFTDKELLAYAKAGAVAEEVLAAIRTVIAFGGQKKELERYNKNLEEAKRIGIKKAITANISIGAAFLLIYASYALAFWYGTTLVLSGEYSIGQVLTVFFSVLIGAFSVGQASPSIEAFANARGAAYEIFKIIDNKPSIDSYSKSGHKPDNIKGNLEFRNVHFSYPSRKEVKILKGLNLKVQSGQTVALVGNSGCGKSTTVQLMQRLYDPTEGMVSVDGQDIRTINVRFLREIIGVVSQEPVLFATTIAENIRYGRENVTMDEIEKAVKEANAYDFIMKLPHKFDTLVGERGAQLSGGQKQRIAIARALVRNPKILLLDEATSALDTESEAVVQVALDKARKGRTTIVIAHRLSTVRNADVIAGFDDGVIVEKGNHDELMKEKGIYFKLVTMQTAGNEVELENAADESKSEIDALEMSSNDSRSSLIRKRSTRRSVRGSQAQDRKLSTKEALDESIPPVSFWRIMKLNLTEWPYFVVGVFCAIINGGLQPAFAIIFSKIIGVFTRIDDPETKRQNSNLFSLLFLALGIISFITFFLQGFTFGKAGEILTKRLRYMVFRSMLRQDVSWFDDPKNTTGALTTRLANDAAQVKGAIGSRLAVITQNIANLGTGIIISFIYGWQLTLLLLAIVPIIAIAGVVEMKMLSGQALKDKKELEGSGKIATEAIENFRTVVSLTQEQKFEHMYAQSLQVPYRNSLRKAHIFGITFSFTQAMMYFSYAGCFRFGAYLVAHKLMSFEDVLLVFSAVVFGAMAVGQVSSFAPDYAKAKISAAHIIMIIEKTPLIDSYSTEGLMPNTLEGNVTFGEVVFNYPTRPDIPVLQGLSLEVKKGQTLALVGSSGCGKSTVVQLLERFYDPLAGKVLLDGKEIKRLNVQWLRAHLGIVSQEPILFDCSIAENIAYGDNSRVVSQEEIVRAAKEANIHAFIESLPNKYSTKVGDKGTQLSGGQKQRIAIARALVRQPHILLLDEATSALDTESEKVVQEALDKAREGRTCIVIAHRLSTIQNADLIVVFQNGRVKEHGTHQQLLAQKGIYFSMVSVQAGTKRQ

Row | effect on permeability of montelukast (Caco-2 cells) | Papp±SD of montelukast (% of control) (Caco-2 cells) | SMILES | also measured
1 | cis-inhibit permeability | 83±8 % of control | CC[C@H](C)C(=O)O[C@H]1C[C@H](O)C=C2C=C[C@H](C)[C@H](CC[C@@H](O)C[C@@H](O)CC(=O)O)[C@H]21 [Pravastatin, pravastatin] | –
2 | enhance permeability | 130±10 % of control | CN(C)C(=O)CCSC(SCCC(=O)O)c1cccc(/C=C/c2ccc3ccc(Cl)cc3n2)c1 (stereo not drawn) [MK571, MK571, sodium salt] | –
3 | – | 90±10 % of control | CCCN(CCC)S(=O)(=O)c1ccc(C(=O)O)cc1 [Probenecid, probenecid] | –
4 | – | 110±10 % of control | C[C@H](CCC(=O)O)[C@H]1CC[C@H]2[C@@H]3CC[C@@H]4C[C@H](O)CC[C@]4(C)[C@H]3C[C@H](O)[C@]12C [Deoxycholic acid, deoxycholic acid, sodium salt] | –
5 | – | – | CC(=O)[C@H]1CC[C@H]2[C@@H]3CCC4=CC(=O)CC[C@]4(C)[C@H]3CC[C@]12C [progesterone] | montelukast permeability, % of control (Caco-2 cells; 5 µM progesterone in donor reservoir): 150±10 % of control; montelukast permeability, % of control (Caco-2 cells; 15 µM progesterone in donor reservoir): 140±10 % of control; montelukast permeability, % of control (Caco-2 cells; 30 µM progesterone in donor reservoir): 160±10 % of control; allosteric activation of OATP2B1 transport of estrone-3-sulfate (OATP2B1 [1]): up to 300%
6 | – | – | C[C@]12CC[C@@H]3c4ccc(OS(=O)(=O)[O-])cc4CC[C@H]3[C@@H]1CCC2=O.[Na+] [Estrone 3-sulfate, estrone 3-sulfate, sodium salt] | enhancement of permeability in OATP2B1 expressing cell line relative to control (OATP2B1 [2]): 280±40%
7 | – | 100±10 % of control | C=C(CC)C(=O)c1ccc(OCC(=O)O)c(Cl)c1Cl [Ethacrynic acid, ethacrynic acid] | –
8 | – | 95±8 % of control | NS(=O)(=O)c1cc(C(=O)O)c(NCc2ccco2)cc1Cl [Furosemide, furosemide] | –
9 | – | 100±10 % of control | CCCCNc1cc(C(=O)O)cc(S(N)(=O)=O)c1Oc1ccccc1 [Bumetanide, bumetanide] | –
10 | enhance permeability | 130±20 % of control | Nc1nc2ncc(CNc3ccc(C(=O)N[C@@H](CCC(=O)O)C(=O)O)cc3)nc2c(=O)[nH]1 [Folic acid, folic acid] | –
11 | – | – | CC(C)(O)c1ccccc1CC[C@@H](SCC1(CC(=O)O)CC1)c1cccc(/C=C/c2ccc3ccc(Cl)cc3n2)c1 [montelukast, Montelukast] | stimulation of ATP consumption by MDR1 membrane preparations (MDR1): does not stimulate ATP consumption; pKa [3]: 5.7; binding to plasma albumin [4]: highly bound; poor response rate [5]: 60 to 70%; permeability in MDCKII-OATP2B1, % of control (parental MDCKII) (OATP2B1 [2]): 140±20 % of control
12 | – | 100±20 % of control | O=S(=O)(O)c1cc(N=C=S)ccc1C=Cc1ccc(N=C=S)cc1S(=O)(=O)O [DIDS, 4,4'-Diisothiocyanostilbene-2,2'-disulfonic acid] | –
13 | – | 90±10 % of control | C[C@H](CCC(=O)O)[C@H]1CC[C@H]2[C@@H]3[C@H](O)C[C@@H]4C[C@H](O)CC[C@]4(C)[C@H]3CC[C@]12C [Chenodeoxycholic acid, chenodeoxycholic acid, sodium salt] | –
14 | – | 110±10 % of control | O=c1c(-c2ccc(O)cc2)coc2cc(O)cc(O)c12 [Genistein, genistein] | –
15 | enhance permeability | 120±10 % of control | CN/C(=N/CCSCc1nc[nH]c1C)NC#N [Cimetidine, cimetidine] | –

Row | SMILES | effect on permeability of montelukast (Caco-2 cells) | Papp±SD of montelukast (% of control) (Caco-2 cells) | also measured
16 | O=C1OC(c2ccc(O)c(S(=O)(=O)O)c2)(c2ccc(O)c(S(=O)(=O)O)c2)c2c(Br)c(Br)c(Br)c(Br)c21 [Sulfobromophthalein, sulfobromophthalein] | cis-inhibit permeability | 72±7 % of control | –
17 | C[C@H](CCC(=O)NCCS(=O)(=O)O)[C@H]1CC[C@H]2[C@@H]3[C@H](O)C[C@@H]4C[C@H](O)CC[C@]4(C)[C@H]3C[C@H](O)[C@]12C [Taurocholic acid, taurocholic acid, sodium salt] | cis-inhibit permeability | 84±9 % of control | –
